Test results reported in publication PMC4675670 (Science translational medicine, 2015).

Columns and labels:
[1] = biological target: cytoplasmic prolyl-tRNA synthetase (PfcPRS, PF3D7_1213800) (Plasmodium falciparum, UniProt Q8I5R7, L482H); test: biochemical assay on purified recombinant mutant enzyme
[2] = biological target: cytoplasmic prolyl-tRNA synthetase (PfcPRS, PF3D7_1213800) (Plasmodium falciparum, UniProt Q8I5R7); test: biochemical assay on purified recombinant enzyme
[3] = biological target: human EPRS (bifunctional glutamyl-prolyl-tRNA synthetase) (Homo sapiens, UniProt P07814); test: biochemical assay
Chain of human EPRS (bifunctional glutamyl-prolyl-tRNA synthetase) (P07814 whole entry): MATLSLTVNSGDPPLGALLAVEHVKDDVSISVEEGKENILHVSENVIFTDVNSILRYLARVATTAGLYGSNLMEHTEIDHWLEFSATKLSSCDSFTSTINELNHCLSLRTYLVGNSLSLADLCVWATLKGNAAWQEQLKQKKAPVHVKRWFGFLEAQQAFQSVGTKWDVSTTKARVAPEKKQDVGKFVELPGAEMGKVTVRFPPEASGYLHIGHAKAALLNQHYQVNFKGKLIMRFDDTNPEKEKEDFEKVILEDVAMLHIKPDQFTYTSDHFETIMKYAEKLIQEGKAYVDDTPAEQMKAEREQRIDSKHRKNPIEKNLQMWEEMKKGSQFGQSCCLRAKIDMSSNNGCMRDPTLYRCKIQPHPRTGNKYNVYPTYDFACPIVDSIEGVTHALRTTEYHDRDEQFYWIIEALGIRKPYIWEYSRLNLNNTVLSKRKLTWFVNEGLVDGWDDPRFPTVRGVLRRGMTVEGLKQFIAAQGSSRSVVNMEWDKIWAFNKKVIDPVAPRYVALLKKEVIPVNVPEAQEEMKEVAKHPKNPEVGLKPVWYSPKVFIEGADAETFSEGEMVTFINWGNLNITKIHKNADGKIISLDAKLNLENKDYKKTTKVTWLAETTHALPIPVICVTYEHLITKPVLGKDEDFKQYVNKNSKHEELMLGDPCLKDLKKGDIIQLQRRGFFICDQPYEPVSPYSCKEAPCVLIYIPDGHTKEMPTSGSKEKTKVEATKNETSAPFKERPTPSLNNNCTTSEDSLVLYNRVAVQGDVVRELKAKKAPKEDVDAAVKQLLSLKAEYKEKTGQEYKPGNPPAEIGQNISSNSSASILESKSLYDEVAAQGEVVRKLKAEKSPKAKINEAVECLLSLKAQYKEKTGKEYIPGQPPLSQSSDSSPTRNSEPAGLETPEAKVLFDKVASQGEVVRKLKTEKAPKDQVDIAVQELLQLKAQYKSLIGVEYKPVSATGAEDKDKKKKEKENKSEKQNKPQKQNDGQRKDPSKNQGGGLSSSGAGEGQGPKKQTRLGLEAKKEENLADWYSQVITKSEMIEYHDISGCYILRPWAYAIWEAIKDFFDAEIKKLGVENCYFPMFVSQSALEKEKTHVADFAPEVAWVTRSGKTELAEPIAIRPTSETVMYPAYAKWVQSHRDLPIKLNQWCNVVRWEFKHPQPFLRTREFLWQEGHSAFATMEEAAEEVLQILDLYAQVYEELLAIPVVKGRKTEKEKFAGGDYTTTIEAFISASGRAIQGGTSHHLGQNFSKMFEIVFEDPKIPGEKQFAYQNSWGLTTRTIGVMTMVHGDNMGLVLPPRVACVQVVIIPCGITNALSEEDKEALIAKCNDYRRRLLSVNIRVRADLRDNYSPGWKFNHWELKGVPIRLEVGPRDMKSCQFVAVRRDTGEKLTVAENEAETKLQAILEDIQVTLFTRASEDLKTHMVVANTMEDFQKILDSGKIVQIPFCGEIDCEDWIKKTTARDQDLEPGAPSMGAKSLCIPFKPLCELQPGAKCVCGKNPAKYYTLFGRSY

Compound `O=c1c2cc(Cl)c(Br)cc2ncn1C[C@@H](O)C[C@H]1NCCC[C@@H]1O` [halofuginol] has a Ki [1] of 1.12 µM, a Ki [2] of 0.0711 µM and a Ki [3] of 0.0657 µM.
